Patent publication US20150328198A1, “METHODS OF TREATING METHICILLIN-RESISTANT STAPHYLOCOCCUS AUREUS (MRSA) USING PPAR-GAMMA AGONISTS” (priority 2014, published 2015)

Tested on: MRSA
Assay: murine MRSA skin and soft tissue infection (SSTI) model
Assay type: in vivo, mice
Description: Peroxisome Proliferator Activator Receptor-γ (PPAR-γ) is a nuclear receptor that inhibits inflammation and redirects macrophages towards an M2 phenotype by driving Arg-1, Scd-1, SSAT and fatty acid synthesis gene expression. PPAR-γ is therefore involved in the development of adipocytes as well as M2-MΦs.

Row | Compound | reduction of average time to healing (mouse, in vivo) | beneficial effects of treatment in PPAR-γ-/- mice (mice lacking myeloid PPAR-γ) | number of viable bacteria in wounds/abscesses (day 12) | resolution of MRSA SSTIs (mouse, in vivo)
1 | CCc1ccc(CCOc2ccc(CC3SC(=O)NC3=O)cc2)nc1 (centres unmarked) [Pioglitazone] | ~5 days |  |  | 
2 | CN(CCOc1ccc(CC2SC(=O)NC2=O)cc1)c1ccccn1 (centres unmarked) [Rosiglitazone] | ~5 days | no effect |  | 
3 | O=C(Nc1ccccc1)c1cc([N+](=O)[O-])ccc1Cl [GW9662] |  |  | greatly increased | non-resolving
